*1 amine or outer side, *2 acyl side, *3 side chain or, on linkers, in order; H or OH if unused. Where a SMILES comes first, the peptide text is derived from it. [ ]: non-standard residue; d: D form. The star is where a group is joined. ξ: configuration not given here. Ala(thiazol-5-yl) = N[C@@H](Cc1cncs1)C(=O)O; Ala(4-thiazolyl) = N[C@@H](Cc1cscn1)C(=O)O; NMePhe(4-F) = CN[C@@H](Cc1ccc(F)cc1)C(=O)O; Phe(4-Cl) = N[C@@H](Cc1ccc(Cl)cc1)C(=O)O; Phe(4-F) = N[C@@H](Cc1ccc(F)cc1)C(=O)O; X2 = CC1(C)CN([*:1])[C@@H]1C(=O)[*:2]; NMeF = CN[C@@H](Cc1ccccc1)C(=O)O; NMeNva = CCC[C@H](NC)C(=O)O; NMeV = CN[C@H](C(=O)O)C(C)C; Isovaleryl = CC(C)CC(=O)*; hSer = N[C@@H](CCO)C(=O)O; NMeA = CN[C@@H](C)C(=O)O; dNMeA = CN[C@H](C)C(=O)O; ξNMeV = CNC(C(=O)O)C(C)C; Aze = O=C(O)[C@@H]1CCN1; NBuGly = CCCCNCC(=O)O; Nme = COCCNCC(=O)O; NEtG = CCNCC(=O)O; Sar = CNCC(=O)O
Assays:
WaGa cells = assay: Cellular Fluorescence Assay 3 (CellTiter-Glo, 72 hours); format: cell-based
Method: Cellular Fluorescence Assay 3
(§1) WaGa cells were grown in suspension in T75 flasks in RPMI medium with 10% fetal bovine serum (FBS) at 37° C. with 5% CO2. 40 μL of WaGa cells were plated into columns 1-22 of white, flat bottom, 384 well plates at a density of 1,000 cells per well in RPMI with 10% FBS. Columns 23 and 24 were filled with 40 μL of media as a positive control. 100 nL of compounds dissolved in DMSO were pin transferred into columns 3-22 of the 384 well plate. Columns 1 and 2 served as negative control wells. Plates were incubated for 72 hours at 37° C. with 5% CO2. After incubation, the cells were given 10 μL of CellTiter-Glo® (Promega®). Luminescence was read on a Molecular Devices SpectraMax i3x plate reader.

MKL-1 cells = assay: Cellular Fluorescence Assay 4 (CellTiter-Glo, 72 hours); format: cell-based
Method: Cellular Fluorescence Assay 4
as §1, with “MKL-1” for “WaGa”, “MKL-1” for “of WaGa”, “reader. In some embodiments, the cyclic peptide described herein is a cyclic peptide depicted in Table 1: […]” for “reader.”

Human MDM2 (HDM2) 1-116 = molecular target: T1, Human MDM2 (HDM2) 1-116 (Homo sapiens, UniProt Q00987); assay: Fluorescence Polarization Assay 1 (MDM2/p53 peptide); format: binding; details: FAM-labeled p53 peptide, 60 minutes
T1 construct: Human MDM2 (HDM2) 1-116
T1 sequence (Q00987 1-116): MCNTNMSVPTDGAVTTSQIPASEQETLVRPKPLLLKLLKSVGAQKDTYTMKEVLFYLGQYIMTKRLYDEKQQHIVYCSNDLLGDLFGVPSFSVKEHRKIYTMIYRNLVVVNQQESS
Method: Fluorescence Polarization Assay 1
(§2) Human MDM2 (HDM2) 1-116 (20 μL) and FAM-labeled GGTSFAEYWNLLSP-NH2, 10 nM and 5 nM respectively in 10 mM Tris, 50 mM NaCl, 0.01% Tween20, and 1 mM DTT at pH 7.4 were dispensed into an opaque, black, 384 well plate. Compounds dissolved in DMSO were pin transferred (˜100-200 nL) to the 384 well plate containing the MDM2/p53 solution. After incubation for 60 minutes, the fluorescence polarization was read on a Molecular Devices SpectraMax plate reader equipped with a Fluorescein FP cartridge. In addition to probe alone (positive control) and probe/MDM2 (negative control), a titration of linear p53(18-26) was included on every plate as an additional control. IC50 values were fit using either Prism or Collaborative Drug Discovery.

MOLM-13 cells = assay: Cellular Fluorescence Assay 1 (CellTiter-Glo, 72 hours); format: cell-based
Method: Cellular Fluorescence Assay 1
as §1, with “MOLM-13” for “WaGa”, “ofMOLM-13” for “of WaGa”

Human MDM4 (HDM4) 1-114 = molecular target: T2, Human MDM4 (HDM4) 1-114 (Homo sapiens, UniProt O15151); assay: Fluorescence Polarization Assay 2 (MDM4/p53 peptide); format: binding; details: FAM-labeled p53 peptide, 60 minutes
T2 construct: Human MDM4 (HDM4) 1-114
T2 sequence (O15151 1-114): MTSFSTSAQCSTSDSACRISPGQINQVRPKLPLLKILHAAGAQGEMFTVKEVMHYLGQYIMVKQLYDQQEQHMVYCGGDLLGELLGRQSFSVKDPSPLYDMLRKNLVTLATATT
Method: Fluorescence Polarization Assay 2
as §2, with “MDM4 (HDM4) 1-114” for “MDM2 (HDM2) 1-116”, “GGTSFAEYWNLLSP —NH2, 20” for “GGTSFAEYWNLLSP-NH2, 10”, “(−100-200” for “(˜100-200”, “MDM4/p53” for “MDM2/p53”, “probe/MDM4” for “probe/MDM2”

MV4-11 cells = assay: Cellular Fluorescence Assay 2 (CellTiter-Glo, 72 hours); format: cell-based
Method: Cellular Fluorescence Assay 2
as §1, with “MV4-11” for “WaGa”

Row | Structure (SMILES) | IC50 (WaGa cells) | IC50 (MKL-1 cells) | IC50 (Human MDM2 (HDM2) 1-116) | IC50 (MOLM-13 cells) | IC50 (Human MDM4 (HDM4) 1-114) | IC50 (MV4-11 cells)
1 | COCC[C@@H]1NC(=O)[C@H]2CCCN2C(=O)[C@H](Cc2ccccc2)N(C)C(=O)[C@H](Cc2ccc(Cl)cc2)NC(=O)[C@H](C(C)C)N(C)C(=O)[C@H](Cc2ccc(F)cc2)NC(=O)CN(C)C(=O)[C@@H](C)N(C)C(=O)[C@H](Cc2cncs2)NC(=O)[C@H](C)N(C)C1=O [compound 27] (cyclo([NMeA][Ala(thiazol-5-yl)][dNMeA][Sar][Phe(4-F)][NMeV][Phe(4-Cl)][NMeF][dP][hSer](Me))) | 100 to 150 nM | 500 to 1000 nM | < 25 nM | ≥ 150 nM | ≥ 100 nM | 100 to 150 nM
2 | COCC[C@@H]1NC(=O)[C@H]2CCCN2C(=O)[C@H](Cc2ccc(F)cc2)N(C)C(=O)[C@H](Cc2ccc(Cl)cc2)NC(=O)[C@@H]2CCN2C(=O)[C@H](Cc2ccc(F)cc2)NC(=O)CN(CCOC)C(=O)[C@@H](C)N(C)C(=O)[C@H](Cc2cscn2)NC(=O)[C@H](C(C)C)N(C)C1=O [compound 22] (cyclo([Ala(4-thiazolyl)][dNMeA][Nme][Phe(4-F)][Aze][Phe(4-Cl)][NMePhe(4-F)][dP][hSer](Me)[NMeV])) | 50 to 100 nM | < 500 nM | 25 to 50 nM | ≥ 150 nM | 25 to 50 nM | 50 to 100 nM
3 | CCCCN1CC(=O)N[C@@H](Cc2ccc(F)cc2)C(=O)N(C)C(C(C)C)C(=O)N[C@@H](Cc2ccc(Cl)cc2)C(=O)N(C)[C@@H](Cc2ccccc2)C(=O)N2CCC[C@@H]2C(=O)N[C@@H](CCOC)C(=O)N(C)[C@@H](C)C(=O)N[C@@H](Cc2cncs2)C(=O)N(C)[C@H](C)C1=O (stereo partly drawn) [compound 24] (cyclo([NMeA][Ala(thiazol-5-yl)][dNMeA][NBuGly][Phe(4-F)][ξNMeV][Phe(4-Cl)][NMeF][dP][hSer](Me))) | ≥ 150 nM | ≥ 2000 nM | 25 to 50 nM | ≥ 150 nM | ≥ 100 nM | ≥ 150 nM
4 | CCN1CC(=O)N[C@@H](Cc2ccc(F)cc2)C(=O)N(C)[C@@H](C(C)C)C(=O)N[C@@H](Cc2ccc(Cl)cc2)C(=O)N(C)[C@@H](Cc2ccccc2)C(=O)N2CCC[C@@H]2C(=O)N[C@@H](CCOC)C(=O)N(C)[C@@H](C)C(=O)N[C@@H](Cc2cncs2)C(=O)N(C)[C@H](C)C1=O [compound 25] (cyclo([NEtG][Phe(4-F)][NMeV][Phe(4-Cl)][NMeF][dP][hSer](Me)[NMeA][Ala(thiazol-5-yl)][dNMeA])) | ≥ 150 nM | 500 to 1000 nM | < 25 nM | ≥ 150 nM | ≥ 100 nM | 100 to 150 nM
5 | COCC[C@@H]1NC(=O)[C@H]2CCCN2C(=O)[C@H](Cc2ccc(F)cc2)N(C)C(=O)[C@H](Cc2ccc(Cl)cc2)NC(=O)[C@@H]2CCN2C(=O)[C@H](Cc2ccc(F)cc2)NC(=O)CN(CCOC)C(=O)[C@@H](C)N(C)C(=O)[C@H](Cc2cscn2)NC(=O)[C@@H]2CCCN2C1=O [compound 21] (cyclo([Ala(4-thiazolyl)][dNMeA][Nme][Phe(4-F)][Aze][Phe(4-Cl)][NMePhe(4-F)][dP][hSer](Me)P)) | ≥ 150 nM | 1000 to 2000 nM | 50 to 100 nM | ≥ 150 nM | 50 to 100 nM | ≥ 150 nM
6 | CCC[C@H]1C(=O)N[C@@H](Cc2ccc(F)cc2)C(=O)N(C)[C@@H](C(C)C)C(=O)N[C@@H](Cc2ccc(Cl)cc2)C(=O)N(C)[C@@H](Cc2ccccc2)C(=O)N2CCC[C@@H]2C(=O)N[C@@H](CCOC)C(=O)N(C)[C@@H](C)C(=O)N[C@@H](Cc2cncs2)C(=O)N(C)[C@H](C)C(=O)N1C [compound 28] (cyclo([NMeA][Ala(thiazol-5-yl)][dNMeA][NMeNva][Phe(4-F)][NMeV][Phe(4-Cl)][NMeF][dP][hSer](Me))) | ≥ 150 nM | 1000 to 2000 nM | < 25 nM | ≥ 150 nM | ≥ 100 nM | 100 to 150 nM
7 | COCC[C@@H]1NC(=O)[C@H]2CCCN2C(=O)[C@H](Cc2ccccc2)N(C)C(=O)[C@H](Cc2ccc(Cl)cc2)NC(=O)[C@H](C(C)C)N(C)C(=O)[C@H](Cc2ccc(F)cc2)NC(=O)[C@H](C)N(C)C(=O)[C@@H](C)N(C)C(=O)[C@H](Cc2cncs2)NC(=O)[C@H](C)N(C)C1=O [compound 26] (cyclo([NMeA][Phe(4-F)][NMeV][Phe(4-Cl)][NMeF][dP][hSer](Me)[NMeA][Ala(thiazol-5-yl)][dNMeA])) | 100 to 150 nM | 500 to 1000 nM | < 25 nM | 100 to 150 nM | 50 to 100 nM | 50 to 100 nM
8 | COCC[C@@H]1NC(=O)[C@H]2CCCN2C(=O)[C@H](Cc2ccc(F)cc2)N(C)C(=O)[C@H](Cc2ccc(Cl)cc2)NC(=O)[C@@H]2CCN2C(=O)[C@H](Cc2ccc(F)cc2)NC(=O)CN(CCOC)C(=O)[C@@H](C)N(C)C(=O)[C@H](Cc2cscn2)NC(=O)CN(C)C1=O [compound 23] (cyclo([Ala(4-thiazolyl)][dNMeA][Nme][Phe(4-F)][Aze][Phe(4-Cl)][NMePhe(4-F)][dP][hSer](Me)[Sar])) | ≥ 150 nM | ≥ 2000 nM | 50 to 100 nM | ≥ 150 nM | 50 to 100 nM | ≥ 150 nM
9 | COCC[C@@H]1NC(=O)[C@H]2CCCN2C(=O)[C@H](Cc2ccccc2)N(C)C(=O)[C@H](Cc2ccc(Cl)cc2)NC(=O)[C@H]([C@@H](C)OC(=O)CC(C)C)NC(=O)[C@H](Cc2ccc(F)cc2)NC(=O)CN(CCOC)C(=O)[C@@H](C)N(C)C(=O)[C@H](Cc2cscn2)NC(=O)[C@H](C)N(C)C1=O [compound 5] (cyclo([Ala(4-thiazolyl)][dNMeA][Nme][Phe(4-F)]T(Isovaleryl)[Phe(4-Cl)][NMeF][dP][hSer](Me)[NMeA])) | – | – | 25 to 50 nM | – | 50 to 100 nM | –
10 | COCC[C@@H]1NC(=O)[C@H]2CCCN2C(=O)[C@H](Cc2ccc(F)cc2)N(C)C(=O)[C@H](Cc2ccc(Cl)cc2)NC(=O)[C@H]2N(CC2(C)C)C(=O)[C@H](Cc2ccc(F)cc2)NC(=O)CN(CCOC)C(=O)[C@@H](C)N(C)C(=O)[C@H](Cc2cscn2)NC(=O)[C@H](C)N(C)C1=O [compound 11] (cyclo([Ala(4-thiazolyl)][dNMeA][Nme][Phe(4-F)][X2][Phe(4-Cl)][NMePhe(4-F)][dP][hSer](Me)[NMeA])) | – | – | < 25 nM | ≥ 150 nM | < 25 nM | 100 to 150 nM

From patent publication US20240199702A1, “CELL-PERMEABLE CYCLIC PEPTIDES AND USES THEREOF” (Unnatural Products Inc., priority 2021, published 2024)
